Measured values as given in patent US4593090A, “Novel nitrosourea compounds, method for preparing same, and pharmaceutical composition containing same” (Gogo Kimura, priority 1981, dated 1986).
Read-outs that look alike come from different tables or passages of the source.

Tests used:
[1] = Acute toxicity (LD50, Behrens-Karber method); assay type: in vivo, ICR mice; conditions: mouse, in vivo, ip, mortality during 30 days
Experimental: Test compounds, dissolved or suspended in 0.5% aqueous CMC, were each intraperitoneally administered to ICR mice in a dose of 0.1 ml per 10 g body weight. LD50 (mg/kg) value of each test compound was calculated from the mortality of mice during 30 days by the Behrens-Karber method.

Leukemia L1210 = test: Activity against Leukemia L1210, intraperitoneal, increase in life span of mice; assay type: in vivo, female mice (BDF1 family); conditions: for ED (maximum ILS) / ED30: Mus musculus, L1210, ip, ip once a day for 5 successive days; for ED (maximum ILS): daily dosage giving maximum increase of life span, read-out: O.D. (optimum dosage); for ED30: daily dosage increasing average survival days by 30%, read-out: ILS30; for Survivors after 60 days / Max. ILS % / Therapeutic ratio TR: ip; for Survivors after 60 days: 6-membered group; for Max. ILS %: 60-day observation, versus control; for Therapeutic ratio TR: O.D./ILS30
Procedure, shortened: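 Dosing started 24 h after ip implantation of 1×10^5 L1210 cells into groups of 6 female BDF1 mice, by ip or oral route daily for 5 consecutive days. Survival was followed for 60 days; increase in life span was scored against untreated mice, with therapeutic ratio from optimum dose over ILS30 dose.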

Ehrlich acites carcinoma = test: Growth-inhibiting effect against Ehrlich acites carcinoma; assay type: in vivo, male mice; conditions: Mus musculus, Ehrlich, 120 h, 5 days; for response vs control in vivo at 25 mg/kg: 25 mg/kg/day ip; for response vs control in vivo at 100 mg/kg: 100 mg/kg/day ip
Procedure, shortened: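 Activity graded from T/C% of total packed ascites cell volume on day 7 (treated vs untreated): - 100-66, + 65-41, ++ 40-11, +++ 10-0. Groups of 6 male mice bore 1×10^7 i.p.-implanted cells and received compound (1% Nikkol HCO-60) i.p. daily for 5 days from 24 hrs after implantation.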

[2] = Diuretic activity, acute sodium loaded mouse screening test; assay type: in vivo, male mice; conditions: 50 mg/kg oral in 1% saline; for Cl^- / K^+ / Na^+: urine
Experimental: The diuretic activity of the compounds of this invention was assayed by the diuresis screening test referred to as "acute sodium loaded mouse". This test was carried out by the following method.
The acute sodium loaded mouse screening test was carried out by using a 10-membered group of male mice (each weighing 18 to 24 g). Test compounds were incorporated in 1% saline (NaCl) solution and orally administered in a volume of 10 ml/kg. The mice were placed in metabolic cages. Each treated group consisted of 10-members. Five members were placed in one cage. Tests were conducted by oral administrations of (A) 1% saline (NaCl) solution to the control group and (B) 1% saline (NaCl) solution containing a test compound according to this invention.
The determination was carried out for sodium, potassium, and chlorine in each pooled urine sample. The determination of sodium and potassium was carried out by flame photometer. Chlorine was determined by chloride analysis apparatus. The analytical values of sodium, potassium, and chlorine were shown with an average mg equivalent (m Eq)/Kg/5 hours, and the diuretic activity was shown with an average urine volume (ml)/Kg/5 hours.

| Compound | LD50 at 720 h [1] [mg/kg] | ED (maximum ILS) (Leukemia L1210) [mg/kg] | ED30 (Leukemia L1210) [mg/kg] | Survivors after 60 days (Leukemia L1210) | Max. ILS % (Leukemia L1210) [%] | Therapeutic ratio TR (Leukemia L1210) | response vs control in vivo at 25 mg/kg (Ehrlich acites carcinoma; read-out: Activity) [%] | response vs control in vivo at 25 mg/kg (Ehrlich acites carcinoma; read-out: T/C %) [%] | response vs control in vivo at 100 mg/kg (Ehrlich acites carcinoma; read-out: Activity) [%] | response vs control in vivo at 100 mg/kg (Ehrlich acites carcinoma; read-out: T/C %) [%] | Urine volume [2] [ml/kg/5 hrs.] | Cl^- [2] [mEq/kg/5 hrs.] | K^+ [2] [mEq/kg/5 hrs.] | Na^+ [2] [mEq/kg/5 hrs.] |
| --- | --- | --- | --- | --- | --- | --- | --- | --- | --- | --- | --- | --- | --- | --- |
| COCCN(C(=O)N(CCCl)N=O)C1C(CO)OC(OCC(C)C)C(O)C1O [Compound 93, 3-(2-methoxyethyl)-3-(isobutyl α-D-glucopyranose-4-yl)-1-(2-chloroethyl)-1-nitrosourea] | 530 | 160 | 4.49 | 3/6 | > 370 | 35.6 | 0 to 10 | 0 | 0 to 10 | 0 | 9.6 | 0.7 | 0.9 | 0.6 |
| COCC(C)N(C[C@H]1O[C@H](OCC(C)C)[C@H](O)[C@@H](O)[C@H]1O)C(=O)N(CCCl)N=O (stereo partly drawn) [Compound 110, 3-(1-methyl-2-methoxyethyl)-3-(isobutyl α-D-galactopyranose-6-yl)-1-(2-chloroethyl)-1-nitrosourea] | 680 | 200 | 3.69 | 4/6 | > 435 | 54.2 | 0 to 10 | 0 | 0 to 10 | 0 | 8.8 | 0.6 | 0.8 | 0.5 |
| COC(C)CO[C@H]1O[C@H](CN(CC2CCCO2)C(=O)N(CCCl)N=O)[C@H](O)[C@H](O)[C@H]1O (stereo partly drawn) [Compound 117, 3-tetrahydrofurfuryl-3-(2-methoxy-n-propyl α-D-galactopyranose-6-yl)-1-(2-chloroethyl)-1-nitrosourea] | 610 | 200 | 3.3 | 6/6 | > 700 | 60.6 | 0 to 10 | 0 | 0 to 10 | 0 | 8.4 | 0.7 | 0.9 | 0.5 |
| CCOCCCN(C(=O)N(CCCl)N=O)[C@H]1[C@H](OC(C)CC)OC[C@H](O)[C@@H]1O (stereo partly drawn) [Compound 157, 3-(3-ethoxy-n-propyl)-3-(sec-butyl α-L-arabinopyranose-2-yl)-1-(2-chloroethyl)-1-nitrosourea] | 550 | 170 | 2.94 | 6/6 | > 700 | 57.8 | 0 to 10 | 0 | 0 to 10 | 0 | 10.5 | 1.1 | 1.0 | 0.8 |
| CC(C)(C)N(C[C@H]1O[C@H](OCCN2CCOCC2)[C@H](O)[C@@H](O)[C@@H]1O)C(=O)N(CCCl)N=O [Compound 181, 3-tert-butyl-3-(2-morpholinoethyl α-D-glucopyranose-6-yl)-1-(2-chloroethyl)-1-nitrosourea] | 530 | 160 | 2.89 | 6/6 | > 700 | 55.4 | 0 to 10 | 0 | 0 to 10 | 0 | 13.1 | 1.3 | 1.2 | 1.1 |
